Data set [1] can be described thus: Solubility or concentration of Naltrexol base in 3:1 H2O:PG after pH adjustment. In kind it is physicochemical. As to conditions: for Solubility in 3:1 H2O:PG: pH adjusted; for Concentration in 3:1 H2O:PG: concentration of drug in solution, freely soluble in the ionized form. The procedure: 100 mg of Naltrexol base was prepared in 3:1 H2O:PG. The solution was briefly vortexed and sonicated for 10 min. To obtain a mixture of pH 8.5 Naltrexol base, 0.5 N sodium hydroxide was added incrementally. The same procedure was performed to obtain a pH 4.5 solution, except 0.5 M HCl was added dropwise. […] The solution was saturated with excess solid when the pH was raised above the first pKa (7.4) of Naltrexol base.

Data set [2] can be described thus: In vitro skin diffusion study, flow-through diffusion cell, guinea pig skin. The procedure:
Hairless guinea pig skin was harvested from euthanitized animals. Animal studies were approved by the University of Kentucky IACUC. Human skin harvested during abdominoplasty was used for the diffusion studies. Human tissue use was approved by the University of Kentucky Institutional Review Board. Skin sections were obtained by removing the subcutaneous fatty tissue by scalpel dissection and stored at −20° C. A PermeGear flow-through (In-Line, Riegelsville, Pa.) diffusion cell system was used for the skin permeation studies. Skin used for microneedle treatment was placed on a wafer of polydimethylsiloxane polymer, which mimicked the underlying resistance of tissue. The skin was poked 20 times with an array containing 5 MN before mounting the skin in the diffusion cell. Untreated skin samples were simply placed in the diffusion cells. Diffusion cells were kept at 32° C. with a circulating water bath. Data was collected by using skin from a single donor with three cells for untreated formulations and three to four cells for the MN treated formulations. The receiver solution was HEPES-buffered Hanks' balanced salts with gentamicin at pH 7.4, and the flow rate was adjusted to 1.1 mL/h. Each cell was charged with 0.25 mL of the respective drug solution. […] All samples were stored at 4° C. until processed by solid phase extraction.
The cumulative quantity of drug collected in the receiver compartment was plotted as a function of time. The flux value for a given experiment was obtained from the slope of the steady state portion of the cumulative amount of drug permeated, plotted over time. Apparent permeability coefficient values were calculated from Fick's First Law of diffusion: [formula]
Sink conditions were maintained in the receiver solution for the duration of the experiment, so ΔC was approximated by the drug concentration in the donor compartment.
The HPLC analysis was performed as described by Vaddi et al., Pharm. Res. 22 (2005) 758-765. The HPLC system consisted of a Waters 717plus autosampler, a Waters 1525 Binary HPLC pump, and a Waters 2487 Dual λ Absorbance detector with Waters Breeze software. A Brownlee C-18 reversed-phase Spheri-5 μm column (220×4.6 mm) with a C-18 reversed phase 7 μm guard column (15×3.2 mm) was used with the UV detector set at a wavelength of 215 nm. […] The mobile phase for Naltrexol consisted of 90:10 ACN:0.1% TFA adjusted to pH 3.0 with TEA. Samples were run for 10 min at 1 mL/min as described by Paudel et al., J. Pharm. Sci. 94 (2005) 1965-1975). One hundred microliters of sample was injected onto the column for both Naltrexone and Naltrexol. Samples were analyzed within the linear range of the standard curves.
The drugs were extracted from the buffer samples by solid phase extraction (30mg 1 cc Oasis® HLB, Waters Corp., Milford, Mass.) as described by Vaddi et al., Pharm. Res. 22 (2005) 758-765.
Before extracting the aqueous drug samples (5 mL), the cartridge was conditioned with 1 mL of methanol and 1 mL of nanopure water. After sample loading, the cartridge was washed with 1 mL of 5% methanol and the drug was eluted with ACN and analyzed by HPLC. A similar extraction method was employed for Naltrexol, except 2 mL of methanol was used in conditioning and 1 mL of nanopure water was also used to further wash the samples after being loaded onto the cartridge. The Naltrexol was eluted with 2 mL of isopropanol and finally with 1 mL ACN. Naltrexol samples were evaporated under nitrogen in a water bath maintained at 37° C. The samples were then reconstituted with 1 mL of ACN for HPLC analysis. Highly concentrated samples of Naltrexone and Naltrexol were further diluted 10 times in ACN.
The data obtained from the diffusion experiments were plotted as the cumulative amount of drug collected in the receiver compartment as a function of time.

The nature of data set [3]: In vivo pharmacokinetics in hairless guinea pigs, gel with or without microneedles. More on the design: species or system hairless guinea pig. The procedure: In vivo studies of hairless guinea pigs were performed in order to obtain pharmacokinetic parameters for guinea pigs treated with 26 mg Naltrexol base gel, MN application followed by 26 mg Naltrexol base gel, 285 mg Naltrexol HCl gel and MN application followed by 285 mg Naltrexol HCl. The base was saturated in gel whereas the hydrochloride salt remained soluble in solution.

For data set [4] the following is noted: cited from earlier work.
Data set [5] is described as follows: Solubility in 3:1 PG:Hanks' buffer. The conditions noted are these: 32° C., 24 h; Hydrochloride. In kind it is physicochemical. The procedure:
An excess of Naltrexone HCl (˜350 mg) was added to 1 mL of 3:1 PG:Hanks' buffer. The saturated solution was then vortexed for 1 min, sonicated for 15 min, and placed in an incubator at 32° C. for 24 h while shaking on a belly shaker. Just before filtering, a glass syringe and 0.45 μm filter were heated in an incubator to 32° C. The solution was filtered and diluted with ACN for high pressure liquid chromatography (HPLC) analysis.

Data set [6] can be described thus: In vitro skin diffusion study, flow-through diffusion cell, human skin. In kind it is in vitro ADME. The conditions noted are these: for Lag time / NTX Flux: Human skin; for Papp at 48 h: human, pH 7.4, Human skin, read-out: Permeability (converted).
The mark [7] stands for this setting: GP skin, No MN, High Dose, 3:1 H2O:PG.
[8] abbreviates: MN application followed by gel (26 mg base or 285 mg HCl).
Setting [9] is: no MN, gel (26 mg Naltrexol base or 285 mg Naltrexol HCl).
Setting [10] is: MN Treated GP skin, 100 mg/ml Naltrexone base equivalent in 3:1 PG:water, 48 hours.
[11] abbreviates: GP skin, MN Treated, High Dose, listed as Naltrexol pH 4.5.

The values that follow come from patent publication US20080008745A1, “Transdermal delivery of naltrexone hydrochloride, naltrexol hydrochloride, and bis(hydroxy-methyl)propionyl-3-0 ester naltrexone using microneedles” (UNIVERSITY OF KENTUCKY RESEARCH FOUNDATION, priority 2006, published 2008).

Values after ≈ are worked out from the molar mass of the structure shown. Structures can show the parent of a compound that is named as a salt. Where two headings read alike, the source gives them in different places.

Turning to `Oc1ccc2c3c1O[C@H]1[C@H](O)CC[C@@]4(O)[C@@H](C2)N(CC2CC2)CC[C@]314` [NTXOL Base pH 8.5, 6-β-Naltrexol], the “Solubility in 3:1 H2O:PG” value in data set [1] was 2690 µM (≈ 924 µg/mL); in data set [1] (listed as Naltrexol base at pH 8.5) it was 2920 µM (≈ 1000 µg/mL). The Lag time in data set [2] (GP skin, MN Treated, High Dose) was found to be 17.53 ± 6.56 h; in data set [2] (GP skin, MN Treated, Low Dose) it was 15.67 ± 6.96 h; in data set [2] (GP skin, No MN, High Dose), 24.34 ± 5.17 h; in data set [2] (GP skin, No MN, High Dose, listed as Naltrexol pH 8.5), 24.34 ± 5.17 h; in data set [2] (GP skin, No MN, Low Dose), 25.37 ± 1.10 h. Moreover, the “NTXOL Flux” value worked out at 4.79 ± 2.62 nmol/cm^2/h in data set [2] (GP skin, MN Treated, High Dose); 15.19 ± 7.33 nmol/cm^2/h in data set [2] (GP skin, MN Treated, Low Dose); 1.36 ± 0.91 nmol/cm^2/h in data set [2] (setting [7]); 8.77 ± 4.08 nmol/cm^2/h in data set [2] (GP skin, No MN, Low Dose).
Broadly, the AUC is the area under the concentration-time curve, a measure of exposure. Low readings indicate less exposure, high ones more exposure. By Cmax is commonly meant the maximum level reached in the sampled fluid or tissue. In general, Tmax refers to the time from dosing to the highest level. Consider `Cl.Oc1ccc2c3c1O[C@H]1[C@H](O)CC[C@@]4(O)[C@@H](C2)N(CC2CC2)CC[C@]314` [NTXOL HCl, Naltrexol Hydrochloride], for which, in data set [2] (MN treated skin, earlier experiment), the Flux is 36.12±1.77 nmol/cm^2/h. The same compound came in with a Flux in data set [2] (untreated skin, earlier experiment) of 2.75±1.38 nmol/cm^2/h. For the same compound, in data set [3] (MN and gel therapy, FIG. 8), the “Plasma concentrations compared to no microneedles and Naltrexol base” value is “markedly higher”. Besides, in data set [3] (setting [8]), the AUC came to 1349 ± 616 ng·h/mL, the Cmax is given as 48.5 ± 18.8 ng/mL, the Css was determined as 21.3 ± 6.9 ng/mL and the Tlag turned out to be 0.7 ± 0.3 h. In addition, the Tmax in data set [3] (setting [8]) is given as 19.2 ± 11.5 h. In data set [3] (setting [9]), this compound gave an AUC of 24.4 ng·h/mL, a Cmax of 4.1 ng/mL, a Css of 1.8 ± 1.68 ng/mL and a Tlag of 1 h. Besides, the Tmax in data set [3] (setting [9]) turned out to be 7.0 h.
For the compound `CC(CO)(CO)C(=O)Oc1ccc2c3c1OC1C(=O)CCC4(O)C(C2)N(CC2CC2)CCC314` (stereo not shown) [NTX-Diol ester, bis(hydroxymethyl)propionyl-3-O-ester naltrexone], in data set [2] (setting [10]), the Flux was 71.98 ± 26.38 nmol/cm^2/h and the Lag time was determined as 10.33 ± 7.95 h. Besides, the “Flux level relative to Naltrexone HCl with MN treatment” value in data set [2] (MN treated GP skin) is “approximately twice”.
In data set [3] (setting [8]), `Oc1ccc2c3c1O[C@H]1[C@H](O)CC[C@@]4(O)[C@@H](C2)N(CC2CC2)CC[C@]314` [NTXOL Base, 6-β-Naltrexol] displayed an AUC of 303.1 ng·h/mL, a Cmax of 8.5 ng/mL, a Css of 5.04 ± 2.57 ng/mL and a Tlag of 0.7 h. Also, in data set [3] (setting [8]), the Tmax is 0.7 h. Moreover, in data set [3] (setting [9]), the AUC came out at 50.5 ± 10.1 ng·h/mL, the Cmax is recorded as 1.7 ± 0.5 ng/mL, the Css is given as 0.95 ± 0.41 ng/mL and the Tlag is 5.2 ± 1.6 h. Also, the Tmax in data set [3] (setting [9]) stood at 40.1 ± 11.7 h. In data set [4], the “first pKa” value is on record as 7.4.
Take `O=C1CC[C@@]2(O)[C@H]3Cc4ccc(O)c5c4[C@@]2(CCN3CC2CC2)[C@H]1O5` [NTX-HCl, Naltrexone Hydrochloride]: the “Solubility in 3:1 PG:Hanks Buffer” value in data set [5] was determined as 794400 µM. The “Flux enhancement by MN treatment” value in data set [2] (GP skin, MN vs untreated) is given as 10 fold; in data set [6] (human skin, MN vs untreated, p<0.05) it was 8 fold. Moreover, the “NTX Flux” value in data set [2] (MN GP skin, 3:1 PG:Hanks' buffer, Hydrochloride) is reported as 27.16 ± 4.57 nmol/cm^2/h; in data set [2] (MN GP skin, 3:1 PG:Hanks' buffer, listed as Naltrexone HCl, Hydrochloride), 27.16±4.57 nmol/cm^2/h; in data set [2] (No MN GP skin, Hydrochloride), 2.71 ± 1.20 nmol/cm^2/h; in data set [6] (MN), 18.54 ± 4.38 nmol/cm^2/h; in data set [6] (No MN), 2.22 ± 0.72 nmol/cm^2/h. In addition, the Lag time in data set [2] (MN GP skin, Hydrochloride) worked out at 2.41 ± 3.85 h; in data set [2] (MN GP skin, listed as Naltrexone HCl, Hydrochloride) it was 2.41 ± 3.85 h; in data set [2] (No MN GP skin, Hydrochloride), 22.38 ± 7.68 h; in data set [2] (No MN GP skin, listed as Naltrexone HCl, Hydrochloride), 22.38 ± 7.68 h; in data set [6] (MN), 12.06 ± 4.32 h; in data set [6] (No MN) it was 23.66 ± 2.74 h. Further, the “Maximum daily dose (calculated from Eq. 2)” value in data set [6] (10 cm^2 patch, MN-treated human skin, highest concentration measured) is reported as 5.0 mg. For the same compound, the Papp at 48 h was 0.0194 ×10⁻⁶ cm/s in data set [6] (MN) and 0.00233 ×10⁻⁶ cm/s in data set [6] (No MN). Besides, the “Permeability Kp (estimated)” value in data set [6] (microneedle-treated human skin) was 0.0194 ×10⁻⁶ cm/s.
As to `Oc1ccc2c3c1O[C@H]1[C@H](O)CC[C@@]4(O)[C@@H](C2)N(CC2CC2)CC[C@]314` [NTXOL Base pH 4.5, 6-β-Naltrexol], the “Concentration in 3:1 H2O:PG” value in data set [1] (High Dose) was “**292.40 mM”; in data set [1] (Low Dose) it was “**76.02 mM”. The Lag time came to 6.58 ± 5.02 h in data set [2] (GP skin, MN Treated, High Dose); 6.58 ± 5.02 h in data set [2] (setting [11]); 10.33 ± 7.95 h in data set [2] (GP skin, MN Treated, Low Dose); 25.97 ± 5.50 h in data set [2] (GP skin, No MN, High Dose); 25.97 ± 5.50 h in data set [2] (GP skin, No MN, High Dose, listed as Naltrexol pH 4.5); 27.18 ± 1.31 h in data set [2] (GP skin, No MN, Low Dose). The “NTXOL Flux” value is recorded as 35.07 ± 8.18 nmol/cm^2/h in data set [2] (GP skin, MN Treated, High Dose); 35.07±8.18 nmol/cm^2/h in data set [2] (setting [11]); 71.98 ± 26.38 nmol/cm^2/h in data set [2] (GP skin, MN Treated, Low Dose); 6.56 ± 6.49 nmol/cm^2/h in data set [2] (setting [7]); 11.50 ± 4.20 nmol/cm^2/h in data set [2] (GP skin, No MN, Low Dose). The “Flux enhancement relative to Naltrexone HCl” value in data set [2] (MN treated GP skin) came out at 1.3 fold.
